Data: PubChem BioAssay AID2060904 (Molecular Pharmacology Branch, DTP, NCI, 2025)

Tested on: 349418-098-R-PDC complex spheroid viability
Experiment: Anticancer human tumor 349418-098-R-PDC patient-derived lung adenocarcinoma cell line growth inhibition [RAS]
Conditions: for IC50: curve of first compound; for viability, T/C: stronger effect = lower value; active = viability on the fitted dose curve at most 10% of control; inactive = the rest
Method in brief: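 Agents were tested in combination matrices in half-log decrements from a top concentration at or near clinical Cmax (10 microM if undetermined). Targets were multi-cell spheroids of tumour lines plus HUVEC and MSC stromal cells.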

[1] = second compound 0.000949 µM, first compound 0.000949 µM
[2] = second compound 0.000949 µM, first compound 0.003 µM
[3] = second compound 0.000949 µM, first compound 0.00949 µM
[4] = second compound 0.000949 µM, first compound 0.03 µM
[5] = second compound 0.000949 µM, first compound 0.0949 µM
[6] = second compound 0.000949 µM, first compound 0.3 µM
[7] = second compound 0.003 µM, first compound 0.000949 µM
[8] = second compound 0.003 µM, first compound 0.003 µM
[9] = second compound 0.003 µM, first compound 0.00949 µM
[10] = second compound 0.003 µM, first compound 0.03 µM
[11] = second compound 0.003 µM, first compound 0.0949 µM
[12] = second compound 0.003 µM, first compound 0.3 µM
[13] = second compound 0.00949 µM, first compound 0.000949 µM
[14] = second compound 0.00949 µM, first compound 0.003 µM
[15] = second compound 0.00949 µM, first compound 0.00949 µM
[16] = second compound 0.00949 µM, first compound 0.03 µM
[17] = second compound 0.00949 µM, first compound 0.0949 µM
[18] = second compound 0.00949 µM, first compound 0.3 µM
[19] = second compound 0.03 µM, first compound 0.000949 µM
[20] = second compound 0.03 µM, first compound 0.003 µM
[21] = second compound 0.03 µM, first compound 0.00949 µM
[22] = second compound 0.03 µM, first compound 0.03 µM
[23] = second compound 0.03 µM, first compound 0.0949 µM
[24] = second compound 0.03 µM, first compound 0.3 µM
[25] = second compound 0.0949 µM, first compound 0.000949 µM
[26] = second compound 0.0949 µM, first compound 0.003 µM
[27] = second compound 0.0949 µM, first compound 0.00949 µM
[28] = second compound 0.0949 µM, first compound 0.03 µM
[29] = second compound 0.0949 µM, first compound 0.0949 µM
[30] = second compound 0.0949 µM, first compound 0.3 µM
[31] = second compound 0.3 µM, first compound 0.000949 µM
[32] = second compound 0.3 µM, first compound 0.003 µM
[33] = second compound 0.3 µM, first compound 0.00949 µM
[34] = second compound 0.3 µM, first compound 0.03 µM
[35] = second compound 0.3 µM, first compound 0.0949 µM
[36] = second compound 0.3 µM, first compound 0.3 µM
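Also: spheroids exposed to compound for seven days before viability readout.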

C=CC(=O)N1CCN(c2nc(OCC3CCCN3C)nc3c(F)c(-c4nc(N)cc(C)c4C(F)(F)F)c(Cl)cc23)C(C)C1 (stereo unspecified) + CCn1c(-c2cccnc2C(C)OC)c2c3cc(ccc31)N1CCOC(CC(NC(=O)C(C(C)C)N(C)C(=O)C3(F)CCN(C(=O)C#CC(C)(C)N(C)C)CC3)C(=O)N3CCCC(N3)C(=O)OCC(C)(C)C2)C1
inactive: viability, T/C (second compound 0.000949 µM, first compound 0.00316 µM) 99% | viability, T/C (second compound 0.000949 µM, first compound 0.01 µM) 94% | viability, T/C (second compound 0.000949 µM, first compound 0.0316 µM) 111% | viability, T/C (second compound 0.000949 µM, first compound 0.1 µM) 106% | viability, T/C (second compound 0.000949 µM, first compound 0.316 µM) 116% | viability, T/C (second compound 0.000949 µM, first compound 1 µM) 87.4% | viability, T/C (second compound 0.003 µM, first compound 0.00316 µM) 112% | viability, T/C (second compound 0.003 µM, first compound 0.01 µM) 97.6% | viability, T/C (second compound 0.003 µM, first compound 0.0316 µM) 103% | viability, T/C (second compound 0.003 µM, first compound 0.1 µM) 92.6% | viability, T/C (second compound 0.003 µM, first compound 0.316 µM) 109% | viability, T/C (second compound 0.003 µM, first compound 1 µM) 82.8% | viability, T/C (second compound 0.00949 µM, first compound 0.00316 µM) 105% | viability, T/C (second compound 0.00949 µM, first compound 0.01 µM) 98.3% | viability, T/C (second compound 0.00949 µM, first compound 0.0316 µM) 101% | viability, T/C (second compound 0.00949 µM, first compound 0.1 µM) 101% | viability, T/C (second compound 0.00949 µM, first compound 0.316 µM) 105% | viability, T/C (second compound 0.00949 µM, first compound 1 µM) 98.8% | viability, T/C (second compound 0.03 µM, first compound 0.00316 µM) 99.3% | viability, T/C (second compound 0.03 µM, first compound 0.01 µM) 97.4% | viability, T/C (second compound 0.03 µM, first compound 0.0316 µM) 90.2% | viability, T/C (second compound 0.03 µM, first compound 0.1 µM) 104% | viability, T/C (second compound 0.03 µM, first compound 0.316 µM) 103% | viability, T/C (second compound 0.03 µM, first compound 1 µM) 83.3% | viability, T/C (second compound 0.0949 µM, first compound 0.00316 µM) 102% | viability, T/C (second compound 0.0949 µM, first compound 0.01 µM) 89% | viability, T/C (second compound 0.0949 µM, first compound 0.0316 µM) 85.5% | viability, T/C (second compound 0.0949 µM, first compound 0.1 µM) 89.7% | viability, T/C (second compound 0.0949 µM, first compound 0.316 µM) 100% | viability, T/C (second compound 0.0949 µM, first compound 1 µM) 89% | viability, T/C (second compound 0.3 µM, first compound 0.00316 µM) 85.4% | viability, T/C (second compound 0.3 µM, first compound 0.01 µM) 95.2% | viability, T/C (second compound 0.3 µM, first compound 0.0316 µM) 83.8% | viability, T/C (second compound 0.3 µM, first compound 0.1 µM) 87.8% | viability, T/C (second compound 0.3 µM, first compound 0.316 µM) 101% | viability, T/C (second compound 0.3 µM, first compound 1 µM) 80%
> 1000 nM: IC50 (second compound 0.000949 µM) | IC50 (second compound 0.003 µM) | IC50 (second compound 0.00949 µM) | IC50 (second compound 0.03 µM) | IC50 (second compound 0.0949 µM) | IC50 (second compound 0.3 µM)

CC1(C)CCC(Nc2ncc(C(F)(F)F)c(-c3c[nH]c4c(P(C)(C)=O)c(C#N)ccc34)n2)CN1 (stereo unspecified) + CCn1c(-c2cccnc2C(C)OC)c2c3cc(ccc31)N1CCOC(CC(NC(=O)C(C(C)C)N(C)C(=O)C3(F)CCN(C(=O)C#CC(C)(C)N(C)C)CC3)C(=O)N3CCCC(N3)C(=O)OCC(C)(C)C2)C1
inactive: viability, T/C [1] 36.9% | viability, T/C [2] 19.5% | viability, T/C [3] 10.7% | viability, T/C [7] 60.5% | viability, T/C [8] 22.8% | viability, T/C [9] 14.4% | viability, T/C [13] 49.8% | viability, T/C [14] 19.5% | viability, T/C [15] 12.2% | viability, T/C [19] 59.3% | viability, T/C [20] 21.2% | viability, T/C [21] 12.3% | viability, T/C [25] 52.1% | viability, T/C [26] 22% | viability, T/C [27] 9.91% | viability, T/C [31] 55.7% | viability, T/C [32] 22.5% | viability, T/C [33] 9.85%
< 0.949 nM: IC50 (second compound 0.000949 µM) | IC50 (second compound 0.00949 µM)
1.02 nM: IC50 (second compound 0.0949 µM)
1.31 nM: IC50 (second compound 0.003 µM)
active: viability, T/C [4] 8.99% | viability, T/C [5] 8.61% | viability, T/C [6] 7.56% | viability, T/C [10] 9.79% | viability, T/C [11] 9.1% | viability, T/C [12] 8.13% | viability, T/C [16] 9.39% | viability, T/C [17] 9.09% | viability, T/C [18] 6.88% | viability, T/C [22] 8.37% | viability, T/C [23] 9.21% | viability, T/C [24] 7.47% | viability, T/C [28] 7.89% | viability, T/C [29] 8.73% | viability, T/C [30] 7.62% | viability, T/C [34] 9.41% | viability, T/C [35] 8.24% | viability, T/C [36] 6.74%
1.25 nM: IC50 (second compound 0.03 µM)
1.15 nM: IC50 (second compound 0.3 µM)

CCc1c2c(nc3ccc(O)cc13)-c1cc3c(c(=O)n1C2)COC(=O)[C@]3(O)CC + CCn1c(-c2cccnc2C(C)OC)c2c3cc(ccc31)N1CCOC(CC(NC(=O)C(C(C)C)N(C)C(=O)C3(F)CCN(C(=O)C#CC(C)(C)N(C)C)CC3)C(=O)N3CCCC(N3)C(=O)OCC(C)(C)C2)C1
active: viability, T/C [4] 4.7% | viability, T/C [5] 2.54% | viability, T/C [6] 2.43% | viability, T/C [10] 6.22% | viability, T/C [11] 2.99% | viability, T/C [12] 2.08% | viability, T/C [16] 5.26% | viability, T/C [17] 2.91% | viability, T/C [18] 2.15% | viability, T/C [22] 5.2% | viability, T/C [23] 2.57% | viability, T/C [24] 2.19% | viability, T/C [28] 5.33% | viability, T/C [29] 2.49% | viability, T/C [30] 1.47% | viability, T/C [33] 7.03% | viability, T/C [34] 4.31% | viability, T/C [35] 2.68% | viability, T/C [36] 1.47%
1.43 nM: IC50 (second compound 0.3 µM)
2.62 nM: IC50 (second compound 0.03 µM)
2.57 nM: IC50 (second compound 0.003 µM)
2.21 nM: IC50 (second compound 0.000949 µM)
2.42 nM: IC50 (second compound 0.0949 µM)
2.86 nM: IC50 (second compound 0.00949 µM)
inactive: viability, T/C [1] 77.2% | viability, T/C [2] 40.1% | viability, T/C [3] 10.9% | viability, T/C [7] 99.5% | viability, T/C [8] 42.5% | viability, T/C [9] 13.3% | viability, T/C [13] 98.7% | viability, T/C [14] 47.9% | viability, T/C [15] 15.6% | viability, T/C [19] 86.4% | viability, T/C [20] 45.1% | viability, T/C [21] 14.1% | viability, T/C [25] 94.7% | viability, T/C [26] 39.9% | viability, T/C [27] 11.3% | viability, T/C [31] 65.3% | viability, T/C [32] 22.4%
